Experimental data: patent US5393768A, “Leukotriene antagonists” (Eli Lilly and Company, priority 1993, dated 1995)

Experiments:
[1] = tested on: LTD4 evoked contractions of guinea pig ileum; assay: Percent inhibition of LTD4 evoked ileal contractions (single submaximal LTD4 response, 5 minute drug exposure); assay type: cell-based, guinea pig (male, Hartley); conditions: Cavia porcellus; for inhibition at 1 µM: Compound concentration 1 × 10^-6 M; for inhibition at 0.1 µM: Compound concentration 1 × 10^-7 M; for inhibition at 0.3 µM: Compound concentration 3 × 10^-7 M; for inhibition at 3 µM: Compound concentration 3 × 10^-6 M; for inhibition at 0.03 µM: Compound concentration 3 × 10^-8 M; for inhibition at 0.01 µM: 5 min, Compound concentration 1 × 10^-8
Protocol: Male, Hartley guinea pigs weighing 200-450 grams were killed by decapitation. A section of terminal ileum was removed, the lumen cleaned, and the tissue divided into 2.5 cm. segments. The ilea were mounted in 10 ml. tissue baths containing Krebs-bicarbonate solution of the following composition in mmoles/-liter: KCl, 4.6; CaCl2 ·2H2 O, 1.2; KH2 PO4, 1.2; MgSO4 ·7H2 O, 1.2; NaCl, 118.2; NaHCO3, 24.8; and dextrose, 10.0. The bath fluid was maintained at 37° C. and aerated with 95 percent oxygen and 5 percent CO2. In addition, the buffer contained 1×10^-6 M atropine to reduce ileal spontaneous activity. Isometric measurements were made with a Grass FTO3C force-displacement transducer and recorded on a Grass polygraph as change in grams of force. A passive force of 0.5 g. was applied to the tissues. After an appropriate equilibration period, single submaximal control responses to pure LTD4 were obtained. Following a five minute exposure of the ileum to an experimental drug, the control concentration of LTD was added to the tissue bath. The response of the ileum to LTD4 in the presence of the drug was compared to the response in the absence of the drug.

[2] = target: T1, LTD4 evoked contractions of guinea pig ileum (Cavia porcellus, UniProt Q2NNR5); assay: LTD4 antagonism, cumulative concentration-response curves (Schild pA2); assay type: cell-based; conditions: 30 minute incubation, negative log of KB
T1 construct: A section of terminal ileum was removed, the lumen cleaned, and the tissue divided into 2.5 cm. segments; from tissue; host or cells: terminal ileum of male Hartley guinea pigs
T1 sequence (Q2NNR5 1-340): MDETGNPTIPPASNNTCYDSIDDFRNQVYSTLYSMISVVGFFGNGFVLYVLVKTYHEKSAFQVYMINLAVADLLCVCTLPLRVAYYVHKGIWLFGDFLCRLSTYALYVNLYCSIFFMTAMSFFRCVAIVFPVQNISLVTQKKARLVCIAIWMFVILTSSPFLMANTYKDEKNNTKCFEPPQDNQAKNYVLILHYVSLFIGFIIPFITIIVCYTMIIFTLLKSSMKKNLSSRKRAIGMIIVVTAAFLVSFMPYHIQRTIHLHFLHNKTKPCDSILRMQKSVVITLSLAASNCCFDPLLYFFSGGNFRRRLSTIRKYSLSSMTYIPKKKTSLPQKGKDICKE
Protocol: For some of the drugs in this series a more detailed analysis of LTD4 antagonism was made. In these experiments, cumulative concentration-response curves were obtained to LTD4 in guinea pig ileum and trachea. This was followed by a 30 minute incubation with various concentrations of the experimental drug. The concentration response curve to LTD4 was then repeated in the presence of the antagonist. Only one concentration of antagonist was used on a single tissue. KB values were calculated by the method of Furchgott [Ann. N.Y. Acad. Sci., 139, 553 (1967)] using the following equation. [formula]
Dose ratio refers to the concentration of agonist required to elicit 50 percent of the maximal response (ED50) in the presence of the antagonist divided by the ED50 in the absence of the antagonist. Calculations were performed with the aid of a computer and a digital plotter.

SMILES | inhibition at 1 µM [1] [%] | inhibition at 0.1 µM [1] [%] | inhibition at 0.3 µM [1] [%] | pA2 [2] | inhibition at 3 µM [1] [%] | Kb [2] [nM] | inhibition at 0.03 µM [1] [%] | inhibition at 0.01 µM [1] [%]
CCCc1c(COc2ccc3c(=O)cc(C(=O)O)oc3c2CCC)ccc(C(C)=O)c1O [Example 10, 7-(4-Acetyl-3-hydroxy-2-propylbenzyloxy)-4-oxo-8-propyl-4H-1-benzopyran-2-carboxylic acid] | 97 | 62 | 86 | 7.42 |  |  |  | 
CCCc1c(COc2ccc(C(=O)O)cc2)ccc(C(C)=O)c1O [Example 11, 4-(4-Acetyl-3-hydroxy-2-propylbenzyloxy)benzoic acid] | 75 |  |  |  | 94 | 234 |  | 
CCCc1c(COc2ccc(CC(=O)O)cc2)ccc(C(C)=O)c1O [Example 12, 4-(4-Acetyl-3-hydroxy-2-propylbenzyloxy)phenylacetic acid] | 91 | 66 | 77 |  |  | 60.3 | 37 | 
CCCc1c(COc2ccc(C(=O)O)c(O)c2)ccc(C(C)=O)c1O [Example 13, 4-(4-Acetyl-3-hydroxy-2-propylbenzyloxy)-2-hydroxybenzoic acid] | 97 | 69 | 85 |  |  | 26.9 | 59 | 30
CCCc1c(COc2cccc(C(=O)O)c2)ccc(C(C)=O)c1O [Example 14, 3-(4-Acetyl-3-hydroxy-2-propylbenzyloxy)benzoic acid] | 31 |  |  |  | 67 | 1780 |  | 
CCCc1c(COc2ccc(CCC(=O)O)cc2)ccc(C(C)=O)c1O [Example 15, 3-[4-(4-Acetyl-3-hydroxy-2-propylbenzyloxy)phenyl]propionic acid] | 79 | 59 | 76 |  |  | 26.3 |  | 
CCCc1c(COc2ccc(OCC(=O)O)cc2)ccc(C(C)=O)c1O [Example 16, 4-(4-Acetyl-3-hydroxy-2-propylbenzyloxy)phenoxyacetic acid] | 88 | 54 | 88 |  |  | 87.1 |  | 
CCCc1c(COc2ccc(C(=O)O)cc2)ccc(C(=O)c2ccccc2)c1O [Example 17, 4-(4-Benzoyl-3-hydroxy-2-propylbenzyloxy)benzoic acid] | 5 |  |  |  | 35 | 4470 |  | 
CCCCC(=O)c1ccc(COc2ccc(CC(=O)O)cc2)c(CCC)c1O [Example 18, 4-(4-Pentanoyl-3-hydroxy-2-propylbenzyloxy)phenylacetic acid] | 21 |  |  |  | 65 | 2090 |  | 
CCCc1c(COc2ccc(-c3nnn[nH]3)cc2)ccc(C(C)=O)c1O [Example 32, 5-[4-(4-Acetyl-3-hydroxy-2-propylbenzyloxy)phenyl]tetrazole] | 94 | 83 | 94 |  |  | 7.76 |  | 
CCCc1c(COc2ccc(Cc3nnn[nH]3)cc2)ccc(C(C)=O)c1O [Example 33, 5-[4-(4-Acetyl-3-hydroxy-2-propylbenzyloxy)benzyl]-tetrazole] | 100 | 92 | 94 |  |  | 7.59 | 81 | 31
CCCc1c(COc2ccc(-c3nnn[nH]3)c(O)c2)ccc(C(C)=O)c1O [Example 34, 5-[4-(4-Acetyl-3-hydroxy-2-propylbenzyloxy)-2-hydroxyphenyl]-tetrazole] |  | 97 | 98 |  |  | 8.71 | 80 | 50
CCCc1c(COc2ccc(CCc3nnn[nH]3)cc2)ccc(C(C)=O)c1O [Example 35, 5-[2-(4-[4-Acetyl-3-hydroxy-2-propylbenzyloxy]phenyl)ethyl]-tetrazole] |  | 84 | 90 |  |  | 8.32 | 63 | 
CCCc1c(COc2ccc(C(C)c3nnn[nH]3)cc2)ccc(C(C)=O)c1O (centres unmarked) [Example 36, 5-[1-(4-[4-Acetyl-3-hydroxy-2-propylbenzyloxy]phenyl)ethyl]-tetrazole] | 94 | 89 | 90 |  |  | 12.6 | 70 | 44
CCCc1c(COc2ccc(C(C)(C)c3nnn[nH]3)cc2)ccc(C(C)=O)c1O [Example 37, 5-[4-(4-Acetyl-3-hydroxy-2-propylbenzyloxy)-α,α-dimethylbenzyl]-tetrazole] |  | 81 | 90 |  |  | 17.4 | 56 | 
CCCc1c(CSCc2ccc(-c3nnn[nH]3)cc2)ccc(C(C)=O)c1O [Example 38, 5-[4-(4-Acetyl-3-hydroxy-2-propylbenzylthiomethyl)phenyl]-tetrazole] |  | 29 | 51 |  |  | 316 |  | 
CC(=O)c1ccc(COc2ccc(-c3nnn[nH]3)cc2)c(C)c1O [Example 39, 5-[4-(4-Acetyl-3-hydroxy-2-methylbenzyloxy)phenyl]-tetrazole] | 90 |  | 70 |  |  | 91.2 |  | 
CCCc1c(CSc2ccc(-c3nnn[nH]3)cc2)ccc(C(C)=O)c1O [Example 40, 5-[4-(4 -Acetyl-3-hydroxy-2-propylbenzylthio)phenyl]-tetrazole] |  | 79 |  |  |  | 20 | 58 | 
CCCc1c(COc2ccc3cc(-c4nn[nH]n4)ccc3c2)ccc(C(C)=O)c1O [Example 41, 5-[2-(6-[4-Acetyl-3-hydroxy-2-propylbenzyloxy]naphthyl)]-tetrazole] |  | 90 |  |  |  | 12.3 |  | 46
CC(=O)c1ccc(COc2ccc(Cc3nnn[nH]3)cc2)c(CC(C)C)c1O [Example 42, 5-(4-[4-Acetyl-3-hydroxy-2-(2-methylpropyl)benzyloxy]benzyl)-tetrazole] |  | 86 | 88 |  |  | 20 | 60 | 34
CCCc1c(CNc2ccc(Cc3nnn[nH]3)cc2)ccc(C(C)=O)c1O [Example 43, 5-[4-(4-Acetyl-3-hydroxy-2-propylbenzylamino)benzyl]tetrazole] |  | 77 |  |  |  | 31.6 | 49 | 
CCc1c(COc2ccc(Cc3nnn[nH]3)cc2)ccc(C(C)=O)c1O [Example 44, 5-[4-(4-Acetyl-3-hydroxy-2-ethylbenzyloxy)benzyl)-tetrazole] |  | 88 |  |  |  | 12.6 | 78 | 41
CCCc1c(C=Cc2ccc(-c3nn[nH]n3)cc2)ccc(C(C)=O)c1O [Example 45, 5-[4-(2-[4-Acetyl-3-hydroxy-2-propylphenyl]ethenyl)phenyl]-tetrazole] | 74 |  | 57 |  |  | 186 |  | 
CCCc1c(CNc2ccc(C(=O)O)cc2)ccc(C(C)=O)c1O [Example 47, 4-(4-Acetyl-3-hydroxy-2-propylbenzylamino)benzoic acid] | 70 |  | 36 |  |  | 490 |  | 
CCCc1c(COCCCCc2nnn[nH]2)ccc(C(C)=O)c1O [Example 49, 5-[4-(4-Acetyl-3-hydroxy-2-propylbenzyloxy)butyl]-tetrazole] | 64 |  | 36 |  |  | 550 |  | 
CCCc1c(COCCOc2ccc(-c3nnn[nH]3)cc2)ccc(C(C)=O)c1O [Example 52, 5-(4-[2-(4-Acetyl-3-hydroxy-2-propylbenzyloxy)ethoxy]phenyl)-tetrazole] |  | 67 | 83 |  |  | 49 | 39 | 
